As usually defined, the inhibition is how much of the control response was suppressed.

For 16 compounds, inhibition and Activity results are on record in ChEMBL document CHEMBL3045927, “Synthesis of 4-methyl-1,2,3-thiadiazole derivatives via Ugi reaction and their biological activities” (2010).

SMILES strings stand for the structures.

What all share (type): functional
Test [1] concerns Tobacco mosaic virus. The experiment in a line: In vitro antiviral activity against Tobacco mosaic virus (TMV) infected tobacco leaves at 100 ug/ml.
In test [2] the test system is Fusarium graminearum. In words: Fungicidal activity against Fusarium graminearum at 50 ug/ml by growth inhibition method. Set-up: scale not given: the % may be the effect or the level left.
Test [3] concerns Pyricularia grisea. The experiment in a line: Fungicidal activity against Magnaporthe grisea at 50 ug/ml by growth inhibition method. The arrangement: scale not given: the % may be the effect or the level left.
Test [4] has as its system Tobacco mosaic virus. The experiment in a line: In vitro antiviral activity against Tobacco mosaic virus (TMV) infected tobacco leaves at 500 ug/ml.
Test [5] relates to Botryosphaeria berengeriana. In words: Fungicidal activity against Botryosphaeria berengeriana at 50 ug/ml by growth inhibition method. The arrangement: scale not given: the % may be the effect or the level left.
Test [6] deals with Phytophthora infestans. The experiment in a line: Fungicidal activity against Phytophthora infestans at 50 ug/ml by growth inhibition method. The arrangement: scale not given: the % may be the effect or the level left.
Test [7] deals with Thanatephorus cucumeris. In words: Fungicidal activity against Thanatephorus cucumeris at 50 ug/ml by growth inhibition method. The arrangement: scale not given: the % may be the effect or the level left.
For test [8], the system named is Colletotrichum lagenaria. In words: Fungicidal activity against Colletotrichum lagenaria at 50 ug/ml by growth inhibition method. Set-up: scale not given: the % may be the effect or the level left.
The subject of test [9] is Mycosphaerella arachidis. The experiment in a line: Fungicidal activity against Mycosphaerella arachidis at 50 ug/ml by growth inhibition method. Set-up: scale not given: the % may be the effect or the level left.
The subject of test [10] is Alternaria solani. In words: Fungicidal activity against Alternaria solani at 50 ug/ml by growth inhibition method. The arrangement: scale not given: the % may be the effect or the level left.
Test [11] relates to Cercospora beticola. The experiment in a line: Fungicidal activity against Cercospora beticola at 50 ug/ml by growth inhibition method. Set-up: scale not given: the % may be the effect or the level left.
In test [12] the test system is Rhizoctonia solani. In words: Fungicidal activity against Rhizoctonia solani at 50 ug/ml by growth inhibition method. The arrangement: scale not given: the % may be the effect or the level left.

In [1], `Cc1ccc(N(C(=O)c2snnc2C)C(C(=O)NC2CCCCC2)c2ccccc2F)cc1F` (configuration not stated) had an inhibition at 100 µg/mL of 22%. Besides, the Activity in test [2] is 0%; in [3] it was 43%; in test [5], 31%; in test [6] it was 41%; in test [7], 33%; in test [8], 42%. Also, the Activity was determined as 29% in test [9], 38% in test [10], 0% in test [11] and 49% in test [12]. Further, testing at 500 µg/mL in [4] gave an inhibition of 23%.

The compound `Cc1ccc(N(C(=O)c2snnc2C)C(C(=O)NC2CCCCC2)c2cccc(F)c2)cc1F` (configuration not stated) gave an inhibition at 100 µg/mL in test [1] of 9%. The Activity in test [2] stood at 38%; in test [3], 0%; in [5], 0%; in test [6], 5%; in test [7], 0%; in test [8], 5%. Further, the Activity in test [9] is given as 21%; in [10] it was 0%; in [11], 17%; in test [12] it was 42%. The same compound registered an inhibition at 500 µg/mL in test [4] of 29%.

`Cc1ccc(N(C(=O)c2snnc2C)C(C(=O)NC2CCCCC2)c2ccc(F)cc2)cc1F` (configuration not stated) had an inhibition at 100 µg/mL in test [1] of 40%. The Activity in test [2] was 8%; in test [3] it was 14%; in test [5], 19%; in test [6], 29%; in test [7], 17%; in test [8], 26%. Also, the Activity in [9] was 43%; in test [10], 44%; in [11], 0%; in test [12], 40%. The compound also yielded an inhibition at 500 µg/mL in test [4] of 36%.

In test [1], `Cc1ccc(N(C(=O)c2snnc2C)C(C(=O)NC2CCCCC2)c2ccc(C(F)(F)F)cc2)cc1F` (configuration not stated) had an inhibition at 100 µg/mL of 10%. The Activity in [2] is reported as 24%; in [3] it was 14%; in test [5], 0%; in test [6], 0%; in test [7], 6%; in [8], 5%. Also, the Activity in [9] turned out to be 57%; in test [10], 0%; in test [11], 50%; in test [12], 35%. For the same compound, 500 µg/mL produced 25% inhibition in test [4].

`Cc1ccc(N(C(=O)c2snnc2C)C(C(=O)NC2CCCCC2)c2ccccc2[N+](=O)[O-])cc1F` (configuration not stated) showed an inhibition at 100 µg/mL in test [1] of 17%. Also, the Activity amounted to 41% in [2]; 0% in test [3]; 0% in test [5]; 5% in test [6]; 0% in test [7]; 5% in test [8]. Also, the Activity in test [9] was determined as 21%; in test [10], 0%; in [11], 67%; in test [12], 37%. Besides, the inhibition at 500 µg/mL in test [4] turned out to be 29%.

On to `Cc1cccc(C(C(=O)NC2CCCCC2)N(C(=O)c2snnc2C)c2ccc(C)c(F)c2)c1` (configuration not stated), for which the inhibition at 100 µg/mL in test [1] worked out at 18%. In addition, the Activity turned out to be 34% in [2]; 0% in test [3]; 0% in test [5]; 0% in test [6]; 0% in test [7]; 0% in test [8]. The Activity in test [9] was determined as 21%; in test [10], 0%; in test [11] it was 33%; in test [12] it was 28%. The inhibition at 500 µg/mL in test [4] worked out at 29%.

Compound `Cc1ccc(C(C(=O)NC2CCCCC2)N(C(=O)c2snnc2C)c2ccc(C)c(F)c2)cc1` (configuration not stated) displayed an inhibition at 100 µg/mL in test [1] of 52%. Further, the Activity is listed as 28% in test [2]; 29% in test [3]; 0% in test [5]; 5% in test [6]; 0% in test [7]; 0% in [8]. Moreover, the Activity in test [9] is recorded as 14%; in test [10] it was 0%; in test [11], 17%; in test [12], 33%. For the same compound, 500 µg/mL produced 36% inhibition in [4].

In test [1], `Cc1ccc(N(C(=O)c2snnc2C)C(C(=O)NC2CCCCC2)c2ccccc2C(F)(F)F)cc1Cl` (configuration not stated) registered an inhibition at 100 µg/mL of 18%. In addition, the Activity in test [2] stood at 12%; in test [3] it was 43%; in [5] it was 46%; in test [6] it was 41%; in test [7], 33%; in [8], 53%. Moreover, the Activity in test [9] is listed as 29%; in test [10] it was 38%; in test [11], 0%; in [12] it was 60%. Further, at 500 µg/mL the inhibition in test [4] was 38%.

The compound `Cc1ccc(N(C(=O)c2snnc2C)C(C(=O)NC2CCCCC2)c2ccc(C(F)(F)F)cc2)cc1Cl` (configuration not stated) gave an inhibition at 100 µg/mL in test [1] of 11%. Besides, the Activity in test [2] worked out at 19%; in test [3] it was 14%; in [5] it was 19%; in test [6] it was 29%; in test [7], 22%; in test [8], 16%. In addition, the Activity in [9] came to 57%; in test [10] it was 31%; in [11], 0%; in test [12], 37%. In test [4], this compound registered an inhibition at 500 µg/mL of 34%.

`Cc1ccc(N(C(=O)c2snnc2C)C(C(=O)NC2CCCCC2)c2cccc([N+](=O)[O-])c2)cc1Cl` (configuration not stated): in test [1], the inhibition at 100 µg/mL was determined as 11%. Further, the Activity worked out at 12% in [2]; 0% in test [3]; 19% in test [5]; 41% in test [6]; 20% in test [7]; 26% in test [8]. Further, the Activity worked out at 57% in [9], 38% in [10], 0% in test [11] and 40% in [12]. Besides, testing at 500 µg/mL in [4] gave an inhibition of 9%.

The compound `Cc1ccc(N(C(=O)c2snnc2C)C(C(=O)NC2CCCCC2)c2ccccc2C)cc1Cl` (configuration not stated) returned an inhibition at 100 µg/mL in test [1] of 38%. Besides, the Activity in [2] was 23%; in test [3], 0%; in test [5], 35%; in [6], 35%; in test [7] it was 43%; in [8], 37%. For the same compound, the Activity in test [9] is on record as 14%; in [10], 56%; in test [11] it was 0%; in test [12] it was 43%. Also, in [4], the inhibition at 500 µg/mL was 42%.

In turn, `Cc1ccc(N(C(=O)c2snnc2C)C(C(=O)NC2CCCCC2)c2ccccc2Cl)cc1F` (configuration not stated) showed an inhibition at 100 µg/mL in [1] of 21%. In addition, the Activity in [2] amounted to 23%; in test [3], 14%; in [5], 31%; in test [6], 47%; in [7] it was 22%; in [8] it was 26%. Also, the Activity in test [9] is listed as 29%; in [10], 19%; in test [11], 0%; in test [12], 37%. In addition, in test [4], 500 µg/mL produced 23% inhibition.

`Cc1ccc(N(C(=O)c2snnc2C)C(C(=O)NC2CCCCC2)c2cccc(Cl)c2)cc1F` (configuration not stated): 100 µg/mL produced 15% inhibition in test [1]. Also, the Activity in test [2] stood at 27%; in [3], 29%; in [5], 8%; in test [6], 29%; in test [7] it was 28%; in test [8], 16%. Also, the Activity in test [9] is on record as 14%; in [10], 25%; in test [11], 13%; in [12] it was 34%. In test [4], this compound yielded an inhibition at 500 µg/mL of 39%.

With `Cc1ccc(N(C(=O)c2snnc2C)C(C(=O)NC2CCCCC2)c2ccc(Cl)cc2)cc1F` (configuration not stated), in test [1], the inhibition at 100 µg/mL was 28%. In addition, the Activity in test [2] worked out at 12%; in test [3] it was 43%; in test [5], 23%; in [6] it was 24%; in test [7], 22%; in test [8], 37%. In addition, the Activity in test [9] is 0%; in [10], 38%; in test [11] it was 0%; in test [12], 43%. In addition, the inhibition at 500 µg/mL in test [4] is 30%.

In turn, `Cc1ccc(N(C(=O)c2snnc2C)C(C(=O)NC2CCCCC2)c2ccc(Cl)cc2)cc1Cl` (configuration not stated) showed an inhibition at 100 µg/mL in test [1] of 38%. Further, the Activity is listed as 35% in test [2]; 29% in test [3]; 27% in [5]; 41% in [6]; 50% in test [7]; 32% in test [8]. The Activity in test [9] came out at 29%; in test [10], 38%; in [11], 0%; in test [12], 40%. The inhibition at 500 µg/mL in test [4] is 29%.

The compound `Cc1ccc(N(C(=O)c2snnc2C)C(C(=O)NC2CCCCC2)c2ccccc2F)cc1Cl` (configuration not stated) yielded an inhibition at 100 µg/mL in test [1] of 18%. In addition, the Activity is listed as 46% in test [2]; 14% in test [3]; 30% in test [5]; 35% in [6]; 33% in [7]; 47% in test [8]. Moreover, the Activity in test [9] is recorded as 43%; in [10], 38%; in test [11] it was 16%; in [12], 49%. Besides, testing at 500 µg/mL in [4] gave an inhibition of 24%.
